# Laboratory results: a melting point compilation (Tetko et al.)
row,melting point,SMILES
1,148 to 150 °C,Cc1ccc(-c2cc(N)on2)cc1
2,230 to 232 °C,CC1Sc2ccc(C(=O)O)cc2NC1=O (centres undefined)
3,169 to 171 °C,O=c1[nH]c2c(Br)cccc2c(=O)o1
4,137 to 139 °C,Nc1nc(-c2ccccc2Cl)co1
5,119 to 121 °C,CCOC(=O)COc1cccc(C(=O)O)c1
6,126 to 128 °C,Cc1nn(C)c(SCC(=O)O)c1C=O
7,168 to 170 °C,Cc1[nH]c2ccccc2c1-c1csc(N)n1
8,186 to 188 °C,Cc1nn(-c2ccc(Cl)cc2Cl)c(C)c1CC(=O)O
9,322 to 324 °C,Cn1c(=O)[nH]c(=O)c2[nH]c(CCC(=O)O)nc21
10,179 to 181 °C,Cc1cc(S(=O)(=O)Cl)cc(C(=O)O)c1C
11,183 to 185 °C,CCc1cc2c(=O)[nH]cnc2s1
12,127 to 129 °C,COC(=O)c1cc(N)c(OC)c(OC)c1
13,160 to 162 °C,CCNC(=O)c1cccc(O)c1
14,123 to 127 °C,CCc1ccccc1OCC(=O)O
15,113 to 115 °C,O=Cc1ccc(F)c2cccnc12
16,87 to 90 °C,Cc1nc(CSc2ccc(C(=O)O)cc2)cs1
17,157 to 159 °C,Cc1noc(C)c1COc1cccc(C(=O)O)c1
18,281 to 283 °C,CC1Oc2c(cccc2C(=O)O)NC1=O (centres undefined)
19,144 to 146 °C,CCn1cc(C(=O)O)cn1
20,173 to 175 °C,Cc1ccc(C(=O)NN)c(O)c1
21,41 to 43 °C,CC1(C)Cc2ccccc2C1=O
22,209 to 211 °C,O=c1cc2c(n[nH]1)CCC2
23,175 to 177 °C,c1ccc(COc2ccc3[nH]ncc3c2)cc1
24,120 to 122 °C,COc1ccc(-c2noc(CCC(=O)O)n2)cc1OC
25,74 to 76 °C,COC(=O)c1ccc(CBr)cc1F
26,152 to 154 °C,Cc1nnnn1C(Cc1ccc(F)cc1)C(=O)O (centres undefined)
27,166 to 168 °C,O=C(O)Cc1coc2ccc3ccccc3c12
28,70 to 72 °C,CCOC(=O)c1ccc2c(c1)nc(C)n2CC

row,melting point,SMILES
1,123 to 125 °C,CNC(=O)COc1cccc(O)c1
2,160 to 162 °C,Cc1ccc(/C=C/C(=O)O)s1
3,214 to 216 °C,CC1(c2ccc(F)cc2Cl)NC(=O)NC1=O (centres undefined)
4,198 to 200 °C,CC1Oc2ccc(N)cc2NC1=O (centres undefined)
5,129 to 131 °C,C=CC(=O)Nc1ccc(OCC)c(CO)c1
6,144 to 146 °C,CC(CC(=O)O)NS(=O)(=O)c1cccnc1Cl (centres undefined)
7,230 to 232 °C,Nc1ccc2[nH]c(-c3ccco3)nc2c1
8,134 to 136 °C,OCc1cc(Br)c2c(c1)OCO2
9,101 to 103 °C,CCOC(=O)c1cnc2c(C)cc(Br)cc2c1Cl
10,165 to 167 °C,O=C(O)CCn1cnc2sccc2c1=O
11,109 to 111 °C,O=C(c1cccnc1)c1csc2ccccc12
12,116 to 118 °C,COC(=O)c1cc(C)nc(SC)n1
13,264 to 266 °C,Cc1nn(-c2ccccc2)c2sc(C(=O)NN)cc12
14,248 to 250 °C,Nc1nc(-c2ccc3c(c2)CCC(=O)N3)cs1
15,30 to 32 °C,CCN(CC)Cc1nc(Cl)c2c(C)c(C)sc2n1
16,311 to 313 °C,O=C1COc2c(cccc2C(=O)O)N1
17,159 to 161 °C,O=C(O)CSc1nc2ccccc2s1
18,118 to 120 °C,Cc1occc1-c1nnc(S)n1C
19,179 to 181 °C,Cc1sc(N)c(C(N)=O)c1C
20,60 to 62 °C,COc1ccc(C=O)c(Cl)c1
21,174 to 176 °C,Cc1nc(-c2ccsc2)ccc1C(=O)O
22,126 to 128 °C,Cc1ccc2[nH]cc(CCC(=O)O)c2c1
23,99 to 101 °C,CC1Oc2c(ccc(Cl)c2Cl)C1=O (centres undefined)
24,147 to 149 °C,NS(=O)(=O)c1cc(Cl)c(Br)s1
25,237 to 239 °C,Nc1ccc2c(c1)C(=O)NC2
26,156 to 158 °C,CCC1(C)NC(=O)N(CC(=O)O)C1=O (centres undefined)
27,102 to 104 °C,COC(=O)c1cccc(OCc2ncon2)c1

# More lines, now with the values behind:
row,SMILES,melting point
1,O=Cc1ccc(Oc2cccc([N+](=O)[O-])c2)cc1,59 to 61 °C
2,O=C(O)c1ccccc1SCc1cccs1,178 to 180 °C
3,Nc1cccc(CS(N)(=O)=O)c1,144 to 146 °C
4,O=C1CC(c2ccccc2)=NN1c1ccccc1Br,183 to 185 °C
5,O=C(O)CCN1C(=O)c2ccccc2S1(=O)=O,164 to 166 °C
6,COC(=O)c1ccccc1NC(=O)CBr,78 to 80 °C
7,NS(=O)(=O)c1cccs1,142 to 144 °C
8,NC(=S)c1cccnc1N,124 to 126 °C
9,N#Cc1cc2c([nH]c1=O)CCN(CCc1ccccc1)C2,219 to 221 °C
10,Nn1ccccc1=O,41 to 43 °C
11,Cc1nn2c(CO)c(C(C)C)nc2s1,119 to 121 °C
12,COc1ccc(S(N)(=O)=O)cc1NC(C)=O,217 to 219 °C
13,O=C(O)c1cc(S(=O)(=O)N2CCOCC2)c[nH]1,264 to 266 °C
14,O=C(O)c1cccnc1OCCO,196 to 198 °C
15,O=C1CC(=Cc2ccc(F)cc2)C(=O)N1,209 to 211 °C
16,Nc1ccc(-c2nc3ccccc3o2)cc1,170 to 172 °C
17,O=C(O)C1=NOC(c2ccccc2)C1 (centres undefined),102 to 104 °C
18,COc1ccc(C(=O)O)cc1C(C)C,164 to 166 °C
19,CS(=O)(=O)c1ccccc1N,62 to 64 °C
20,O=C1NCCN2CCCCC12 (centres undefined),134 to 136 °C
21,Nc1ccc(Cl)c(-c2nnc3n2CCCCC3)c1,284 to 286 °C
22,CC(=O)NCc1ccc(C(=O)C(C)Cl)o1 (centres undefined),64 to 66 °C
23,CC(C)(C)OC(=O)N1CCCC(C(=O)O)C1 (centres undefined),160 to 162 °C

row,SMILES,melting point
1,Cc1c(C(=O)O)cc([N+](=O)[O-])c(C)c1[N+](=O)[O-],201 to 203 °C
2,C[C@H](NC(=O)c1cccc([N+](=O)[O-])c1)C(=O)O,159 to 161 °C
3,O=C(Nc1sccc1C(=O)O)c1ccc2c(c1)CCC2,214 to 216 °C
4,Cc1cc(C(=O)CCl)c(C)n1-c1ccc(OC(F)F)cc1,83 to 87 °C
5,CC(C)(C)c1ccc(OCCCC(=O)O)cc1,53 to 55 °C
6,O=C(O)CCS(=O)(=O)c1ccccc1Cl,132 to 134 °C
7,CCN1CCCC1CN=C=S (centres undefined),43 to 45 °C
8,O=C(O)Cn1nc2n(c1=O)CCCCC2,229 to 231 °C
9,O=C(NC1(c2nn[nH]n2)CCCC1)c1ccccc1,228 to 230 °C
10,CSCCC(NC(=O)c1ccc2ccccc2n1)C(=O)O (centres undefined),131 to 133 °C
11,CON(C)C(=O)Cc1ccc(Cl)cc1,45 to 47 °C
12,Cc1ccccc1C1(C(=O)O)CCOCC1,170 to 172 °C
13,CC(NC(=O)CCC(=O)O)C(=O)c1ccc(Br)cc1 (centres undefined),136 to 138 °C
14,Nn1c(SCC(=O)O)nnc1C1CCCCC1,159 to 161 °C
15,O=C(O)C1CC1C(=O)N1CCN(c2ccccc2)CC1 (centres undefined),155 to 157 °C
16,NC(=O)Cc1ccc(F)cc1,155 to 157 °C
17,Cc1ccc(C(=O)N2CC(C)CC(C)C2)cc1N (centres undefined),154 to 156 °C
18,N#Cc1cc(F)c(C(=O)O)c(F)c1,189 to 191 °C
19,Cc1ccc(O)c(S(=O)(=O)N(C)C)c1,76 to 78 °C
20,CCOc1cc(C(=O)N2CCCC(C(=O)O)C2)cc(OCC)c1OCC (centres undefined),183 to 185 °C
21,O=C(Nc1ccc(O)cc1)c1ccsc1,207 to 209 °C
22,O=C(O)c1ccc(I)c(Cl)c1,218 to 220 °C
23,CC(=O)N(CCC(N)=S)C(C)C,104 to 106 °C

row,SMILES,melting point
1,NCc1ccc(N2CCN(c3ccccn3)CC2)nc1,107 to 109 °C
2,Cc1ccc(OC(F)F)c(C(=O)CBr)c1,55 to 57 °C
3,O=C(O)c1ccc(SCCCO)cc1,168 to 170 °C
4,O=C(O)c1cc(Cl)c2c(c1)OCCCO2,195 to 197 °C
5,O=S(=O)(c1ccccc1)c1ccc(O)cc1,135 to 137 °C
6,O=C(O)c1cc(-c2cccnc2)nc2nc(N3CCCC3)sc12,329 to 331 °C
7,O=C(O)c1ccccc1OC1CCCCC1,86 to 88 °C
8,O=C(O)C=Cc1ccc(S(=O)(=O)N2CCOCC2)cc1,249 to 251 °C
9,CC(C)(C)OC(=O)c1nnsc1N,134 to 136 °C
10,Cc1ccc(-c2noc3nc(C)cc(C(=O)O)c23)cc1,261 to 263 °C
11,CC(C)(C)NC(=O)c1ccc(N)cc1,124 to 126 °C
12,N#Cc1cccc(-n2ccnc2)n1,97 to 99 °C
13,Cc1noc(C)c1C(C)C(=O)O (centres undefined),101 to 103 °C
14,COc1ccc(S(N)(=O)=O)cc1[N+](=O)[O-],139 to 141 °C
15,NC(=O)CNC(=O)c1ccc(N)cc1,216 to 218 °C
16,CNS(=O)(=O)c1cc(C(=O)O)c(C)o1,154 to 156 °C
17,O=S(=O)(CCN1CCCC(O)C1)c1ccc(Br)cc1 (centres undefined),182 to 184 °C
18,Nc1ncn(Cc2ccccn2)n1,113 to 115 °C
19,Sc1nc(-c2ccccc2)ns1,161 to 163 °C
20,Fc1ccc(-n2nc(CCl)c3c2CCC3)cc1,101 to 103 °C
21,O=C(c1ccc[nH]1)N1CCCNCC1,143 to 145 °C
22,Oc1ccc(-c2noc(C3CC3)n2)cc1,149 to 151 °C
23,CC(=O)c1ccc(S(C)=O)cc1 (centres undefined),105 to 107 °C

row,SMILES,melting point
1,COC(=O)c1c(-c2ccc(F)cc2)csc1N,135 to 137 °C
2,CCOCCCNC(=O)CCl,25 to 27 °C
3,NS(=O)(=O)Cc1ccc(Br)cc1,191 to 193 °C
4,Cn1ccnc1CN1CCC(C(=O)O)CC1,173 to 175 °C
5,NC(=O)C1CCc2ccccc2N1 (centres undefined),115 to 117 °C
6,CC(C)(C(=O)O)c1cccc(Br)c1,68 to 70 °C
7,O=C(O)CNC(=O)c1ccc(F)cc1F,139 to 141 °C
8,COC(=O)c1cc(OC)c(S(=O)(=O)O)s1,109 to 111 °C
9,CC(Oc1cccc(C=O)c1)C(=O)O (centres undefined),65 to 67 °C
10,O=C(O)c1nc(-c2ccccc2)oc1C1CC1,198 to 200 °C
11,Nc1ccc(CNC(=O)c2ccc(C(F)(F)F)cc2)cc1,163 to 165 °C
12,O=C1C=CC(=O)N1c1ccc(F)cc1,160 to 162 °C
13,Nc1ccc(Cl)c(C(=O)NCc2ccccc2F)c1,95 to 97 °C
14,O=C(O)CC(Br)C(=O)c1ccc(Cl)cc1 (centres undefined),113 to 117 °C
15,O=C(O)C=Cc1cccc(CO)c1,129 to 131 °C
16,ClCc1ccc(-c2nc3cccc(Cl)c3s2)cc1,173 to 175 °C
17,COc1ccc(C(N)CN2CCN(C)CC2)cc1 (centres undefined),82 to 84 °C
18,N#C/C=C/c1ccc(Cl)cc1,45 to 47 °C
19,O=C(O)CCCOc1cccc(Cl)c1Cl,121 to 123 °C
20,C=CCn1c(S)nnc1C1CCS(=O)(=O)C1 (centres undefined),101 to 103 °C
